The text below walks through data of ChEMBL document CHEMBL1152058, “Configurational variants of hydroxyphenylkainoid: their potent depolarizing activities in the rat central nervous system” (1992).

For the assay, the species on record is Rattus norvegicus. The assay is described as follows: Compound was evaluated for its depolarizing activity in the isolated rat spinal cord and the relative potency was determined. The class given is functional.

SMILES strings stand for the structures.

Compound `O=C(O)C[C@H]1[C@@H](C(=O)O)NC[C@@H]1c1ccccc1O` registered a Relative potency of 2.
Then `C=C(C)[C@H]1CN[C@H](C(=O)O)[C@H]1CC(=O)O` [KAINIC ACID], with 150.
Then `N[C@@H](CCC(=O)O)C(=O)O` [GLUTAMIC ACID], with 1; and `O=C(O)C[C@@H]1[C@@H](C(=O)O)NC[C@H]1c1ccccc1O`, with 0.5; and `O=C(O)C[C@@H]1[C@@H](C(=O)O)NC[C@@H]1c1ccccc1O`, with 300.
Then `O=C(O)C[C@H]1[C@@H](C(=O)O)NC[C@H]1c1ccccc1O`, with 0.5.
